Laboratory results as given in article PMC12073785, “Design, Synthesis and Biological Evaluation of 3-Hydrazonoindolin-2-one Derivatives as Novel HIV-1 RNase H Inhibitors” (Molecules, 2025).

Key:
[1] = biological target: T1, HIV-1 RT-associated RNase H (Human immunodeficiency virus type 1 group M subtype B, UniProt P04585); assay: HIV-1 RT-associated RNase H inhibition (fluorescent RNA/DNA hybrid); format: biochemical; conditions: for IC50: HIV-1 RT wt, average of three independent determinations, read-out: IC50, concentration required to inhibit 50% of in vitro RNase H activity
T1 construct: HIV-1 group M subtype B heterodimeric reverse transcriptase (RT) was expressed and purified; made in house; host or cells: Escherichia coli strain M15, p6HRT-Prot expression vector
Protocol: The tested compounds were initially dissolved in dimethyl sulfoxide (DMSO) at a concentration of 50 mM and subsequently serially diluted (ratio 1:3). The compounds were tested as previously described.
Briefly, a reaction mixture containing 50 mM Tris-HCl buffer pH 7.8, 6 mM MgCl2, 1 mM dithiothreitol (DTT), 80 mM KCl, 0.25 μM hybrid RNA/DNA. 25 μM of RNA/DNA hybrid 5′-GAUCUGAGCCUGGAGCU-Fluorescin-3′ (HPLC, dry, QC: Mass Check), 5′-Dabcyl-AGCTCCCAGGCTCAGATC-3′ (HPLC, dry, QC: Mass Check), and increasing concentrations of inhibitors was diluted in DMSO. The activity of the RNase H function associated with HIV-1 RT was quantified by measuring the linear portion of the dose–response curve. The reaction mixture was incubated at 37 °C for 10 min with a Victor Nivo 5 multilabel plate reader (model 1420-051, PerkinElmer, Waltham, MA, USA), and fluorescence signals were recorded at excitation/emission wavelengths of 490/528 nm. Based on the obtained fluorescence data, the inhibitory concentration 50 (IC50) of the target compounds was calculated by interpolation on a dose–response curve. Results are reported as average and standard deviation of at least two independent replicates in triplicate.

HIV-1 (strain IIIB) = assay: Anti-HIV-1 (strain IIIB) activity in MT-4 cells, MTT assay; format: cell-based
Protocol: (§1) The anti-HIV-1 (strain IIIB) activity evaluation in MT-4 cells was conducted using an optimized MTT assay. The cell lines were obtained from the laboratory (Prof. Erik De Clercq, Rega Institute for Medical Research, KU Leuven, Herestraat 49, Leuven, Belgium). Compounds were serially diluted (5-fold increments, starting from 10× concentration) and dispensed into 96-well plates (25 µL/well) via an automated Biomek 3000 workstation (Beckman Instruments, Fullerton, CA, USA). Parallel experimental groups included virus-infected (50 µL HIV inoculum, 100–300 TCID50) and mock-infected controls (50 µL culture medium). MT-4 cells were centrifuged (220× g, 5 min), resuspended to 6 × 10⁵ cells/mL, and seeded (50 µL/well). After a 5-day incubation, cell viability was quantified by measuring mitochondrial dehydrogenase-mediated MTT-to-formazan conversion using dual-wavelength spectrophotometry (540 nm primary, 690 nm reference). The 50% cytotoxic concentration (CC50) was calculated from triplicate median absorbance values, representing the compound concentration reducing mock-infected cell viability by 50%.

[2] = Cytotoxicity in mock-infected MT-4 cells, MTT assay; format: cell-based; conditions: human, mock-infected MT-4 cells; reduction of normal uninfected MT-4 cell viability by 50%
Protocol: as §1

Row | Structure (SMILES) | IC50 [1] [µM] | other results
1 | O=C1Nc2ccc(Cl)cc2C1=NNc1cc(=O)[nH]c(=O)[nH]1 [Compound 6c, 6-(2-(5-Chloro-2-oxoindolin-3-ylidene)hydrazineyl)pyrimidine-2,4(1H,3H)-dione] | 58.8 ± 2.4 | –
2 | O=C1Nc2cc(Br)c(Br)cc2C1=NNc1c[nH]c(=O)[nH]c1=O [Compound 11b, 5-(2-(5,6-Dibromo-2-oxoindolin-3-ylidene)hydrazineyl)pyrimidine-2,4(1H,3H)-dione] | 2.2 ± 0.2 | Fold increase in RNase H inhibitory potency compared to compound 6a ([1]; IC50 ratio versus 6a): 40 fold; Fold increase in RNase H inhibitory potency compared to compound 6t ([1]; IC50 ratio versus 6t): 4 fold; EC50 (HIV-1 (strain IIIB); Human immunodeficiency virus 1, IIIB, MT4, protection of MT-4 cells against HIV-induced cytopathogenicity by 50%): 44.9 µM; SI, selectivity index (HIV-1 (strain IIIB); ratio CC50/EC50, MT-4 cells): 8; CC50 at 5 days [2]: 349 µM
3 | O=C1Nc2ccccc2C1=NNc1cc(=O)[nH]c(=O)[nH]1 [Compound 6b, 6-(2-(2-Oxoindolin-3-ylidene)hydrazineyl)pyrimidine-2,4(1H,3H)-dione] | > 100 | –
4 | O=C1Nc2ccc(F)cc2C1=NNc1cc(=O)[nH]c(=O)[nH]1 [Compound 6a, 6-(2-(5-Fluoro-2-oxoindolin-3-ylidene)hydrazineyl)pyrimidine-2,4(1H,3H)-dione] | 81.2 ± 11.4 | –
5 | O=C1Nc2cc(OC(F)(F)F)ccc2C1=NNc1cc(=O)[nH]c(=O)[nH]1 [Compound 6j, 6-(2-(2-Oxo-6-(trifluoromethoxy)indolin-3-ylidene)hydrazineyl)pyrimidine-2,4(1H,3H)-dione] | 15.28 ± 0.01 | –
6 | O=C1Nc2cc(F)ccc2C1=NNc1cc(=O)[nH]c(=O)[nH]1 [Compound 6g, 6-(2-(6-Fluoro-2-oxoindolin-3-ylidene)hydrazineyl)pyrimidine-2,4(1H,3H)-dione] | 56.8 ± 15.9 | –
7 | O=C1Nc2cc(Cl)ccc2C1=NNc1cc(=O)[nH]c(=O)[nH]1 [Compound 6h, 6-(2-(6-Chloro-2-oxoindolin-3-ylidene)hydrazineyl)pyrimidine-2,4(1H,3H)-dione] | > 100 | –
8 | O=C1Nc2c(F)cccc2C1=NNc1cc(=O)[nH]c(=O)[nH]1 [Compound 6k, 6-(2-(7-Fluoro-2-oxoindolin-3-ylidene)hydrazineyl)pyrimidine-2,4(1H,3H)-dione] | > 100 | –
9 | O=C1Nc2c(Cl)cccc2C1=NNc1cc(=O)[nH]c(=O)[nH]1 [Compound 6l, 6-(2-(7-Chloro-2-oxoindolin-3-ylidene)hydrazineyl)pyrimidine-2,4(1H,3H)-dione] | 46.6 ± 3.25 | –
10 | Cc1cccc2c1NC(=O)C2=NNc1cc(=O)[nH]c(=O)[nH]1 [Compound 6n, 6-(2-(7-Methyl-2-oxoindolin-3-ylidene)hydrazineyl)pyrimidine-2,4(1H,3H)-dione] | 25.5 ± 1.37 | –
11 | O=C1Nc2cc(F)c(F)cc2C1=NNc1cc(=O)[nH]c(=O)[nH]1 [Compound 6s, 6-(2-(5,6-Difluoro-2-oxoindolin-3-ylidene)hydrazineyl)pyrimidine-2,4(1H,3H)-dione] | 64.9 ± 0.77 | –
12 | Cc1cc(C)c2c(c1)C(=NNc1cc(=O)[nH]c(=O)[nH]1)C(=O)N2 [Compound 6v, 6-(2-(5,7-Dimethyl-2-oxoindolin-3-ylidene)hydrazineyl)pyrimidine-2,4(1H,3H)-dione] | 23.6 ± 3.89 | –
13 | O=C1Nc2ccc(OC(F)(F)F)cc2C1=NNc1cc(=O)[nH]c(=O)[nH]1 [Compound 6f, 6-(2-(2-Oxo-5-(trifluoromethoxy)indolin-3-ylidene)hydrazineyl)pyrimidine-2,4(1H,3H)-dione] | 8.94 ± 1.43 | –
14 | O=C1Nc2cc(Br)c(Br)cc2C1=NNc1cc(=O)[nH]c(=O)[nH]1 [Compound 6u, 6-(2-(5,6-Dibromo-2-oxoindolin-3-ylidene)hydrazineyl)pyrimidine-2,4(1H,3H)-dione] | 11.8 ± 0.81 | –
15 | O=C1Nc2cc(Br)ccc2C1=NNc1cc(=O)[nH]c(=O)[nH]1 [Compound 6i, 6-(2-(6-Bromo-2-oxoindolin-3-ylidene)hydrazineyl)pyrimidine-2,4(1H,3H)-dione] | 23.6 ± 1.11 | –
16 | O=C1Nc2ccc(Br)cc2C1=NNc1cc(=O)[nH]c(=O)[nH]1 [Compound 6d, 6-(2-(5-Bromo-2-oxoindolin-3-ylidene)hydrazineyl)pyrimidine-2,4(1H,3H)-dione] | > 100 | –
17 | O=C1Nc2c(cccc2C(F)(F)F)C1=NNc1cc(=O)[nH]c(=O)[nH]1 [Compound 6o, 6-(2-(2-Oxo-7-(trifluoromethyl)indolin-3-ylidene)hydrazineyl)pyrimidine-2,4(1H,3H)-dione] | 24.1 ± 7.02 | –
18 | COc1ccc2c(c1)C(=NNc1cc(=O)[nH]c(=O)[nH]1)C(=O)N2 [Compound 6p, 6-(2-(5-Methoxy-2-oxoindolin-3-ylidene)hydrazineyl)pyrimidine-2,4(1H,3H)-dione] | > 100 | –
19 | O=C1Nc2c(Br)cccc2C1=NNc1cc(=O)[nH]c(=O)[nH]1 [Compound 6m, 6-(2-(7-Bromo-2-oxoindolin-3-ylidene)hydrazineyl)pyrimidine-2,4(1H,3H)-dione] | 43.8 ± 7.92 | –
20 | Cc1ccc2c(c1)C(=NNc1cc(=O)[nH]c(=O)[nH]1)C(=O)N2 [Compound 6e, 6-(2-(5-Methyl-2-oxoindolin-3-ylidene)hydrazineyl)pyrimidine-2,4(1H,3H)-dione] | > 100 | –
21 | COc1ccc2c(c1)NC(=O)C2=NNc1cc(=O)[nH]c(=O)[nH]1 [Compound 6q, 6-(2-(6-Methoxy-2-oxoindolin-3-ylidene)hydrazineyl)pyrimidine-2,4(1H,3H)-dione] | > 100 | –
22 | COc1cccc2c1NC(=O)C2=NNc1cc(=O)[nH]c(=O)[nH]1 [Compound 6r, 6-(2-(7-Methoxy-2-oxoindolin-3-ylidene)hydrazineyl)pyrimidine-2,4(1H,3H)-dione] | > 100 | –
